# Data: patent US20250230193A1, “CYCLIC COMPOUND HAVING SELECTIVE KRAS INHIBITORY EFFECT ON HRAS AND NRAS” (CHUGAI SEIYAKU KABUSHIKI KAISHA, priority 2022, published 2025)
# *1 amine or outer side, *2 acyl side, *3 side chain or, on linkers, in order; H or OH if unused. Where a SMILES comes first, the peptide text is derived from it. Bridges are numbered along the chain shown (N, C = ends). [ ]: non-standard residue; d: D form. The star is where a group is joined. hPhe(3,5-F2-4-CF3) = N[C@@H](CCc1cc(F)c(C(F)(F)F)c(F)c1)C(=O)O; hPhe(3-Cl-4-CF3) = N[C@@H](CCc1ccc(C(F)(F)F)c(Cl)c1)C(=O)O; NPrPhe(4-CF3) = CCCN[C@@H](Cc1ccc(C(F)(F)F)cc1)C(=O)O; NMeGly(cPent) = CN[C@H](C(=O)O)C1CCCC1; X46 = CC1(C)CN([*:1])[C@@H]1C(=O)[*:2]; αMeI = CC[C@H](C)[C@](C)(N)C(=O)O; Hyp = O=C(O)[C@@H]1C[C@@H](O)CN1; NMeD = CN[C@@H](CC(=O)O)C(=O)O; NMeL = CN[C@@H](CC(C)C)C(=O)O; Morpholide = C1CN(*)CCO1; Ac5c = NC1(C(=O)O)CCCC1; Aze = O=C(O)[C@@H]1CCN1; Ac4c = NC1(C(=O)O)CCC1; Sar = CNCC(=O)O
# Legend:
# [1] = biological target: GDP-bound NRAS wild-type protein (Homo sapiens, UniProt P01111); test: Binding to NRAS by surface plasmon resonance (SPR), Single Cycle Kinetics; conditions: for NRAS/KRAS (ratio of KD value with respect to NRAS to KD value with respect to KRAS): GDP-bound NRAS wild-type vs GDP-bound KRAS wild-type
# Sequence of GDP-bound NRAS wild-type protein (P01111 whole entry): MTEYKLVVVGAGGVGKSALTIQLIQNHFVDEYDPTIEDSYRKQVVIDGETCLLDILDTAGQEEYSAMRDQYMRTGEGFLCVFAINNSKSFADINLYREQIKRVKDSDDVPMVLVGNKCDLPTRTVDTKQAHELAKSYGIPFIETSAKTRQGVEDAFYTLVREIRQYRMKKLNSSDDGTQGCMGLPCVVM
# [2] = biological target: GDP-bound HRAS wild-type protein (Homo sapiens, UniProt P01112); test: Binding to HRAS by surface plasmon resonance (SPR), Single Cycle Kinetics; conditions: for HRAS/KRAS (ratio of KD value with respect to HRAS to KD value with respect to KRAS): GDP-bound HRAS wild-type vs GDP-bound KRAS wild-type
# Sequence of GDP-bound HRAS wild-type protein (P01112 whole entry): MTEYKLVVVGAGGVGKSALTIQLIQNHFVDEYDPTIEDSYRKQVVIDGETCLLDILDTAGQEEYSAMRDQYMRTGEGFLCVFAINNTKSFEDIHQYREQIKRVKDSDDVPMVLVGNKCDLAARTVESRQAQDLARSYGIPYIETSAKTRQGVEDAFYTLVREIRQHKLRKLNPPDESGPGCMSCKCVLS
# [3] = KD ratio NRAS/KRAS, class symbols
# [4] = KD ratio HRAS/KRAS, class symbols
smiles,measurement,setting,value
CC[C@H](C)[C@@H]1NC(=O)[C@H](CC(C)C)N(C)C(=O)C[C@@H](C(=O)N2CCCC2)N(C)C(=O)[C@H](C2CCCC2)N(C)C(=O)C2(CCCC2)NC(=O)[C@@H]2CCCN2C(=O)[C@H](CCc2cc(F)c(C(F)(F)F)c(F)c2)NC(=O)CN(C)C(=O)[C@H](Cc2ccc(C(F)(F)F)cc2)N2CCCC[C@@H](C2=O)N(C)C(=O)CN(C)C1=O [PP0571],NRAS/KRAS (ratio of KD value with respect to GDP-bound NRAS wild-type protein to KD value with respect to KRAS),"[1]; KD ratio NRAS/KRAS, SPR",B (a compound having 3 or more and less than 10 is denoted as B)
same,HRAS/KRAS (ratio of KD value with respect to GDP-bound HRAS wild-type protein to KD value with respect to KRAS),"[2]; KD ratio HRAS/KRAS, SPR",B (a compound having 3 or more and less than 10 is denoted as B)
CCO[C@@H]1C[C@H]2C(=O)NC3(CCC3)C(=O)N(C)[C@@H](C3CCCC3)C(=O)N(C)[C@H](C(=O)N3CCC3)CC(=O)N(C)[C@@H](CC)C(=O)N[C@@H]([C@@H](C)CC)C(=O)N(C)CC(=O)N(C)[C@H]3C/C=C\CCN(C3=O)[C@@H](Cc3ccc(C(F)(F)F)cc3)C(=O)N(C)CC(=O)N[C@@H](CCc3cc(F)c(C(F)(F)F)c(F)c3)C(=O)N2C1 [PP1091],NRAS/KRAS (ratio of KD value with respect to NRAS to KD value with respect to KRAS),"[1]; KD ratio, SPR",A (a compound having 10 or more and less than 20 is denoted as A)
same,HRAS/KRAS (ratio of KD value with respect to HRAS to KD value with respect to KRAS),"[2]; KD ratio, SPR",B (a compound having 3 or more and less than 10 is denoted as B)
"CCCN1C(=O)CN(C)C(=O)CN(C)C(=O)[C@H]([C@@H](C)CC)NC(=O)[C@H](CC(C)C)N(C)C(=O)C[C@@H](C(=O)N(C)C)N(C)C(=O)[C@H](C2CCCC2)N(C)C(=O)[C@](C)([C@@H](C)CC)NC(=O)[C@@H]2CCCN2C(=O)[C@H](CCc2cc(F)c(C(F)(F)F)c(F)c2)NC(=O)CN(C)C(=O)[C@@H]1Cc1ccc(C(F)(F)F)cc1 [PP0736] ([NMeL]I[Sar][Sar][NPrPhe(4-CF3)][Sar][hPhe(3,5-F2-4-CF3)]P[αMeI][NMeGly(cPent)][NMeD]-NMe2; lactam N-11)",NRAS/KRAS (ratio of KD value with respect to GDP-bound NRAS wild-type protein to KD value with respect to KRAS),"[1]; KD ratio NRAS/KRAS, SPR",B (a compound having 3 or more and less than 10 is denoted as B)
same,HRAS/KRAS (ratio of KD value with respect to GDP-bound HRAS wild-type protein to KD value with respect to KRAS),"[2]; KD ratio HRAS/KRAS, SPR",C (A compound having a KD ratio of 0.1 or more and less than 3 is denoted as C)
CCC[C@H]1C(=O)N[C@@H]([C@@H](C)CC)C(=O)N2CCC[C@H]2C(=O)N(C)[C@H]2C/C=C\CCN(C2=O)[C@@H](Cc2ccc(C)cc2)C(=O)N(C)CC(=O)N[C@@H](CCc2ccc(Cl)c(Cl)c2)C(=O)N2C[C@H](OC(C)C)C[C@H]2C(=O)NC2(CC(C)(C)C2)C(=O)N(C)[C@@H](C(CC)CC)C(=O)N(C)[C@H](C(=O)N(C)C)CC(=O)N1C [PP2641],NRAS/KRAS (ratio of KD value with respect to GDP-bound NRAS wild-type protein to KD value with respect to KRAS),[1]; [3],AA (a compound having 20 or more is denoted as AA)
same,HRAS/KRAS (ratio of KD value with respect to GDP-bound HRAS wild-type protein to KD value with respect to KRAS),[2]; [4],A (a compound having 10 or more and less than 20 is denoted as A)
CCCN1C(=O)[C@@H]2CCN2C(=O)[C@H]2N(CC2(C)C)C(=O)[C@H]([C@@H](C)CC)NC(=O)[C@H](CC(C)C)N(C)C(=O)C[C@@H](C(=O)N2CCOCC2)N(C)C(=O)[C@H](C2CCCC2)N(C)C(=O)C2(CCCC2)NC(=O)[C@@H]2CCCN2C(=O)[C@H](CCc2ccc(C(F)(F)F)c(Cl)c2)NC(=O)CN(C)C(=O)[C@@H]1Cc1ccc(C(F)(F)F)cc1 [PP0277] ([NMeL]I[X46][Aze][NPrPhe(4-CF3)][Sar][hPhe(3-Cl-4-CF3)]P[Ac5c][NMeGly(cPent)][NMeD]-Morpholide; lactam N-11),NRAS/KRAS (ratio of KD for GDP-bound NRAS wild-type to KD for KRAS),"[1]; KD ratio NRAS/KRAS, SPR",C (A compound having a KD ratio of 0.1 or more and less than 3 is denoted as C)
same,HRAS/KRAS (ratio of KD for GDP-bound HRAS wild-type to KD for KRAS),"[2]; KD ratio HRAS/KRAS, SPR",C (A compound having a KD ratio of 0.1 or more and less than 3 is denoted as C)
C#CC[C@H]1C(=O)N[C@@H]([C@@H](C)CC)C(=O)N(C)CC(=O)N(C)[C@H]2C/C=C\CCN(C2=O)[C@@H](Cc2ccc(C(F)(F)F)cc2)C(=O)N(C)CC(=O)N[C@@H](CCc2ccc(C(F)(F)F)c(OC)c2)C(=O)N2C[C@H](OCC)C[C@H]2C(=O)NC2(CC(C)(C)C2)C(=O)N(C)[C@@H](C2CCCC2)C(=O)N(C)[C@H](C(=O)N(C)CC)CC(=O)N1C [PP2051],NRAS/KRAS (ratio of KD value with respect to NRAS to KD value with respect to KRAS),[1]; SPR,A (a compound having 10 or more and less than 20 is denoted as A)
same,HRAS/KRAS (ratio of KD value with respect to HRAS to KD value with respect to KRAS),[2]; SPR,A (a compound having 10 or more and less than 20 is denoted as A)
CCCN1C(=O)[C@@H]2CCN2C(=O)CN(C)C(=O)[C@H]([C@@H](C)CC)NC(=O)[C@H](CC(C)C)N(C)C(=O)C[C@@H](C(=O)N(C)C)N(C)C(=O)[C@H](C2CCCC2)N(C)C(=O)C2(CCC2)NC(=O)[C@@H]2C[C@@H](OCC)CN2C(=O)[C@H](CCc2ccc(C(F)(F)F)c(Cl)c2)NC(=O)CN(C)C(=O)[C@@H]1Cc1ccc(C(F)(F)F)cc1 [PP0445] ([NMeL]I[Sar][Aze][NPrPhe(4-CF3)][Sar][hPhe(3-Cl-4-CF3)][Hyp](Et)[Ac4c][NMeGly(cPent)][NMeD]-NMe2; lactam N-11),NRAS/KRAS (ratio of KD value with respect to GDP-bound NRAS wild-type protein to KD value with respect to KRAS),"[1]; KD ratio NRAS/KRAS, SPR",C (A compound having a KD ratio of 0.1 or more and less than 3 is denoted as C)
same,HRAS/KRAS (ratio of KD value with respect to GDP-bound HRAS wild-type protein to KD value with respect to KRAS),"[2]; KD ratio HRAS/KRAS, SPR",C (A compound having a KD ratio of 0.1 or more and less than 3 is denoted as C)
CCO[C@@H]1C[C@H]2C(=O)NC3(CC(C)(C)C3)C(=O)N(C)[C@@H](CC3CCC3)C(=O)N(C)[C@H](C(=O)N(C)C)CC(=O)N(C)[C@@H](COC)C(=O)N[C@@H]([C@@H](C)CC)C(=O)N(C3CC3)CC(=O)N(C)[C@H]3C/C=C\CCN(C3=O)[C@@H](Cc3ccc(C(F)(F)F)cc3)C(=O)N(C)CC(=O)N[C@@H](CCc3ccc(C(F)(F)F)c(OC)c3)C(=O)N2C1 [PP2771],NRAS/KRAS (ratio of KD value with respect to GDP-bound NRAS wild-type protein to KD value with respect to KRAS),[1]; [3],AA (a compound having 20 or more is denoted as AA)
same,HRAS/KRAS (ratio of KD value with respect to GDP-bound HRAS wild-type protein to KD value with respect to KRAS),[2]; [4],A (a compound having 10 or more and less than 20 is denoted as A)
CCO[C@@H]1C[C@H]2C(=O)NC3(CCC3)C(=O)N(C)[C@@H](C3CCCC3)C(=O)N(C)[C@H](C(=O)N(C)C)CC(=O)N(C)[C@@H](Cc3cccnc3)C(=O)N[C@@H]([C@@H](C)CC)C(=O)N(C)CC(=O)N(C)[C@H]3CCCCCN(C3=O)[C@@H](Cc3ccc(C(F)(F)F)cc3)C(=O)N(C)CC(=O)N[C@@H](CCc3cc(F)c(C(F)(F)F)c(F)c3)C(=O)N2C1 [PP0673],NRAS/KRAS (ratio of KD value with respect to GDP-bound NRAS wild-type protein to KD value with respect to KRAS),"[1]; KD ratio NRAS/KRAS, SPR",B (a compound having 3 or more and less than 10 is denoted as B)
same,HRAS/KRAS (ratio of KD value with respect to GDP-bound HRAS wild-type protein to KD value with respect to KRAS),"[2]; KD ratio HRAS/KRAS, SPR",B (a compound having 3 or more and less than 10 is denoted as B)
CCO[C@@H]1C[C@H]2C(=O)NC3(CCC3)C(=O)N(C)[C@@H](C3CCCC3)C(=O)N(C)[C@H](C(=O)N3CCOCC3)CC(=O)N(C)[C@@H](Cc3ccc(C#N)cc3)C(=O)N[C@@H]([C@@H](C)CC)C(=O)N(C)CC(=O)N(C)[C@H]3CCCCCN(C3=O)[C@@H](Cc3ccc(F)cc3)C(=O)N(C)CC(=O)N[C@@H](CCc3cc(F)c(C(F)(F)F)c(F)c3)C(=O)N2C1 [PP1187],NRAS/KRAS (ratio of KD value with respect to NRAS to KD value with respect to KRAS),"[1]; KD ratio, SPR",B (a compound having 3 or more and less than 10 is denoted as B)
same,HRAS/KRAS (ratio of KD value with respect to HRAS to KD value with respect to KRAS),"[2]; KD ratio, SPR",B (a compound having 3 or more and less than 10 is denoted as B)
